Assay results as given in US7192742B2, “FO-6979 substances and process for producing the same” (Gakkou Houjin Kitasato Gakeun, priority 2001, dated 2007).
Like-named read-outs stand apart in the source and are kept apart here.

How the values were obtained:
Solubility in solvent = assay type: physicochemical
From the text: The thus obtained FO-6979-M0 substance, -M1 substance, -M2 substance, -M3 substance and -M4 substance exist in the cultured microorganism cells and the culture filtrate. Isolation of FO-6979-M0 substance, -M1 substance, -M2 substance, -M3 substance and -M4 substance from the cultured mass can be performed by extracting the whole cultured mass with water miscible organic solvent such as aceton, distilling off the organic solvent from the extract in vacuo, and extracting the residue with water immiscible organic solvent such as ethyl acetate. In addition to the above extraction procedure, conventional methods used for isolation of fat-soluble substances such as adsorption chromatography, gel filtration chromatography, thin-layer chromatography, counter current chromatography and high performance liquid chromatography can be used optionally in combination or repeatedly to isolate and purify FO-6979-M0 substance, -M1 substance, -M2 substance, -M3 substance and -M4 substance. Physicochemical properties of FO-6979 substances of the present invention are explained hereinbelow.

mice = assay: Toxicity test, intraperitoneal administration in mice; assay type: in vivo; conditions: administered intraperitoneally, 100 mg/kg
Protocol: Next, toxicity test of FO-6979 substances of the present invention was explained hereinbelow.
No toxicity was noted when FO-6979-M0 substance, -M1 substance, -M2 substance, -M3 substance and -M4 substance was administered intraperitoneally in mice with 100 mg/kg.

[1] = target: T1, acyl-CoA: cholesterol acyltransferase derived from mouse; assay: Acyl-CoA: cholesterol acyltransferase activity assay, mouse liver microsome membrane fraction, [1-14C] oleoyl-CoA; assay type: biochemical; conditions: 37° C. for 10 minutes, read-out: IC50, concentration which inhibits 50% of Acyl-CoA: cholesterol acyltransferase activity
T1 construct: A membrane fraction derived from mouse liver microsome was used as an enzyme origin
Protocol: Inhibitory activities of FO 6979-M0 substance, -M1 substance, -M2 substance, -M3 substance and -M4 substance of the present invention (hereinafter totally designates as FO-6979 substances) on acyl-CoA: cholesterol acyltransferase derived from mouse are explained hereinbelow.
Acyl-CoA: cholesterol acyltransferase activity was assayed by the modified method of Uelmen, et al. (J. Biol. Chem. 270: 26192–26201, 1995). A membrane fraction derived from mouse liver microsome was used as an enzyme origin. A mouse liver was homogenized with buffer A [50 mM Tris-HCL (pH 7.8), 1 mM EDTA and 1 mM phenylmethanesulfonyl fluoride] using Potter homogenizer (Tokyo-RIKO Inc.).
The homogenate was centrifuged at 12,000×g, and the supernatant solution was ultracentrifuged at 100,000×g to obtain the microsome fraction which was prepared for a solution with protein concentration 5 mg/ml by adding the buffer A. Assay of acyl-CoA: cholesterol acyltransferase activity was performed by adding enzyme 200 μg protein, […] bovine serumu alubumin, [1-^14C] oleoyl-CoA (final concentration 170 μM, 0.09 μCi) and each FO-6979 substance into the buffer A to prepare total 100 μl solution and incubated at 37° C. for 10 minutes.
Subsequently, the reaction was terminated by adding 0.5 ml ethanol and added 1.5 ml hexane therein, then stirred well. Hexane layer 1 ml was dried up and was spotted on TLC plate (silica gel plate, thickness 0.5 mm, Merck Co., U.S.A.) which was developed with a solvent mixture, petroleum ether/diethyl ether/acetic acid (90:10:1, v/v). The generated [^14C] cholesteryl olate was quantitative measured using radio scanner (Ambis Co.). Results indicating concentration which inhibits 50% of Acyl-CoA: cholesterol acyltransferase activity of FO-6979 substances (-M0 substance˜-M4 substance) (IC50) are shown in the following table.

[2] = system: cholesteryl ester formation in mouse peritoneal macrophage; assay: Cholesteryl ester formation in mouse peritoneal macrophage ([14C] oleic acid incorporation); assay type: cell-based; conditions: for IC50: 14 hours incubation, read-out: IC50, generation of [14C] cholesteryl olate
Protocol: Inhibitory action of FO-6979 substances of the present invention on cholesteryl ester formation in mouse peritoneal macrophage is explained.
Cholesteryl ester formation and lipid droplets formation in mouse peritoneal macrophage were performed according to a method of Namatame et al.(J. Biochem. 125: 319–327, 1999). Macrophage isolated from mouse peritoneal fluid was suspended at 2.0×10^6 cells/ml in Dulbecco's modified Eagle's medium containing 6.8% lipoprotein deficient serum (6.8% LPDS-DMEM) and aliquots (0.25 ml) were dispensed into a 48-well microplate (Corning Co.).
(§1) The plate was incubated in a humidified 5% CO2 atmosphere incubator at 37° C. for 2 hours, after which each plate was washed with Hank's solution to remove the unattached cells. The plate was incubated in 6.8% LPDS-DMEM for 1 hour, and each one of FO-6979 substances (2.5 μl 1 methanol solution), liposome [consisting of phosphatidylcholine/phosphatidylserine/dicetylphosphate/cholesterol=10:10:2:15 (nmol) in 10 μl of 0.3 M glucose] and [1-^14C] oleic acid (5 μl, 0.05 μCi, 1 nmol) were added therein, then incubated further 14 hours.
After the incubation, supernatant was removed and the intracellular neutral lipids were extracted twice with adding hexane 0.6 ml and isopropanol 0.4 ml. The mixture was concentrated, spotted on TLC plate (silica gel plate, Merck Co., thickness 0.5 mm) and developed and with a mixed solvent of hexane/diethyl ether/acetia acid(70:30:1, v/v). The separated [^14C] cholesteryl olate and [^14C] triacylglycerol were quantitatively assayed using radio scanner (Ambis Co.).

[3] = system: mouse peritoneal macrophage; assay: Toxicity test on growth of mouse peritoneal macrophage; assay type: cell-based; conditions: final concentration of 50 μM
[4] = system: lipid droplets formation in mouse peritoneal macrophage; assay: Lipid droplets formation in mouse peritoneal macrophage (oil red O / hematoxylin staining); assay type: cell-based; conditions: 20 μM, 14 hours
Protocol: Inhibitory action of FO-6979 substances of the present invention on lipid droplets formation in mouse peritoneal macrophage is explained.
Lipid droplets formation in mouse peritoneal macrophage was performed according to the method of Namatame et al. (J. Biochem. 125:319–327, 1999). Macrophage isolated from mouse peritoneal fluid was suspended at 2.0×10^6 cells/ml in Dulbecco's modified Eagle's medium containing 6.8% lipoprotein deficient serum (6.8% LPDS-DMEM) and aliquots (0.25 ml) were dispensed into a slide chamber (Nunc Co.).
as §1, with “chamber” for “plate”, “the chamber” for “each plate”, “FO-6979-M3 substance” for “each one of FO-6979 substances”, “μl” for “μl 1”, “solution) and” for “solution),”, “glucose]” for “glucose] and [1-^14C] oleic acid (5 μl, 0.05 μCi, 1 nmol)”
The lipid droplets and nuclei were double stained with oilred O and hematoxylin, and observed by optical microscope (Olympus OpticalCo., Japan).

[5] = Mus musculus, Peritoneal macrophage, 14 h

Row | Structure (SMILES) | Solubility in solvent: methanol, benzene, chloroform and ethyl acetate (Solubility in solvent) | Solubility in solvent: water and hexane (Solubility in solvent) | toxicity in mice (mice) | IC50 [1] [µM] | IC50 [2, 5] [µM] | toxicity for growth of mouse peritoneal macrophage [3] | inhibition at 45 µM ([2]; at 45 μM, read-out: inhibition of [14C] cholesteryl olate generation) [%] | IC50 [2] [µM] | lipid droplets accumulated in cytoplasm, decreased to % as compared with no drug addition (control) [4]
1 | CCCCC(C)C1CC(=O)N[C@@H](C(C)C)C(=O)N[C@@H](C)C(=O)N[C@H](C(C)C)C(=O)O1 (stereo partly drawn) [FO-6979-M0 substance] | soluble | slight soluble | No toxicity | > 50 | > 25 | No toxicity |  |  | 
2 | CCCCC(C)C1CC(=O)N[C@@H](C(C)C)C(=O)N[C@@H](C)C(=O)N[C@H]([C@@H](C)CC)C(=O)O1 (stereo partly drawn) [FO-6979-M1 substance] | soluble | slightly soluble | No toxicity | > 50 | > 45 | No toxicity | 20 |  | 
3 | CCCCC(C)C1CC(=O)N[C@@H](C(C)C)C(=O)N[C@@H](C)C(=O)N[C@H](CC(C)C)C(=O)O1 (stereo partly drawn) [FO-6979-M2 substance] | Soluble | slightly soluble | No toxicity |  |  | No toxicity |  | > 25 | 
4 | CCCCC(C)C1CC(=O)N[C@@H](Cc2ccccc2)C(=O)N[C@@H](C)C(=O)N[C@H](C(C)C)C(=O)O1 (stereo partly drawn) [FO-6979-M3 substance] | soluble | slightly soluble | No toxicity | 40 | 21 | No toxicity |  | > 25 | about 50%
5 | CCCCCCC(C)C1CC(=O)N[C@@H](C(C)C)C(=O)N[C@@H](C)C(=O)N[C@H]([C@@H](C)CC)C(=O)O1 (stereo partly drawn) [FO-6979-M4 substance] | soluble | slightly soluble | No toxicity |  |  | No toxicity |  |  | 
